US12459951B2, “Compounds that interact with RAS superfamily proteins for treatment of cancers, inflammatory diseases, rasopathies, and fibrotic disease” (SHY Therapeutics, LLC, priority 2022, dated 2025)
pIC50: −log10 of the molar value. Like-named read-outs stand apart in the source and are kept apart here.

Experiments:
[1] = system: KRas G12C mutant; experiment: Ras GTP Binding Domain Inhibition Assay (Ras Superfamily Assay); settings: 20 μM compound; for KRas G12C mutant + SOS: % inh.: with SOS; for KRas G12C mutant: % inh.: without SOS
In short: (§1)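 Binding of 100 nM fluorescent GTP (Cy3 or Cy5, 45 min, room temperature) was read after washes from plate-captured His-tagged protein. Beforehand, compounds at 20 μM or in dilution series for IC50 sat 3 h on the protein in Tris buffer pH 7.4 or 7.0 with 1% DMSO, Sos GEF optionally added for the last hour.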

[2] = system: KRas wild type; experiment: as above; settings: 20 μM compound; for KRas wild type + SOS: % inh.: with SOS; for KRas wild type: % inh.: without SOS
In short: as §1

[3] = system: KRas G12D mutant; experiment: as above; settings: 20 μM compound; for KRas G12D mutant + SOS: % inh.: with SOS; for KRas G12D mutant: % inh.: without SOS
In short: as §1

[4] = system: MiaPaca-2 (expressing KRAS G12C mutant); experiment: Proliferation Assay (Cell Viability Assay); format: cell-based; settings: Homo sapiens, MIA PaCa-2
In short: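 After 2–4 days' exposure at 37 °C, 5% CO2 to a single 10 μM final concentration or a dilution series (IC50), percent proliferation inhibition was derived from CellTiter 96 Aqueous One viability readings. The medium contained 0.3% DMSO and 10% FBS. KRAS G12C MiaPaca-2 cells were plated at 2000–5000/well the day before.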

[5] = read-out: Proliferation in MiaPaca-2: IC50

Compound	KRas G12C mutant + SOS: % inh. [1]	KRas G12C mutant: % inh. [1]	KRas wild type + SOS: % inh. [2]	KRas wild type: % inh. [2]	KRas G12D mutant + SOS: % inh. [3]	KRas G12D mutant: % inh. [3]	pIC50 [4, 5]	pIC50 ([4]; MiaPaca2, pancreatic, KRas G12C, read-out: Proliferation assay IC50)	IC50 ([4]; Proliferation assay, MiaPaca-2, read-out: MiaPaca-2 IC50 (nM) Pancreatic) [nM]
COc1cnc(Nc2nc(-c3nccn3C)nn3cc(-c4ccn(C(C)C)n4)c(C)c23)nc1 [Compound 56, 6-(1-Isopropyl-1H-pyrazol-3-yl)-N-(5-methoxypyrimidin-2-yl)-5-methyl-2-(1-methyl-1H-imidazol-2-yl)pyrrolo[2,1-f][1,2,4]triazin-4-amine]	A (A = 1-25% inhibition)	C (C = 50-75% inhibition)	0 (0 = 0% inhibition)	B (B = 26-49% inhibition)	B (B = 26-49% inhibition)	B (B = 26-49% inhibition)	6.30 to 6.82	–	–
Cc1c(-c2ccn(C(C)C)n2)cn2nc(-c3nccn3C)nc(Nc3ccccn3)c12 [Compound 57, 6-(1-Isopropyl-1H-pyrazol-3-yl)-5-methyl-2-(1-methyl-1H-imidazol-2-yl)-N-(pyridin-2-yl)pyrrolo[2,1-f][1,2,4]triazin-4-amine]	D (D = 76-100% inhibition)	D (D = 76-100% inhibition)	D (D = 76-100% inhibition)	D (D = 76-100% inhibition)	D (D = 76-100% inhibition)	D (D = 76-100% inhibition)	> 6.82	–	–
COc1ccnc(Nc2nc(-c3nccn3C)nn3cc(-c4ccn(C(C)C)n4)c(C)c23)c1 [Compound 58, 6-(1-Isopropyl-1H-pyrazol-3-yl)-N-(4-methoxypyridin-2-yl)-5-methyl-2-(1-methyl-1H-imidazol-2-yl)pyrrolo[2,1-f][1,2,4]triazin-4-amine]	C (C = 50-75% inhibition)	D (D = 76-100% inhibition)	D (D = 76-100% inhibition)	D (D = 76-100% inhibition)	D (D = 76-100% inhibition)	D (D = 76-100% inhibition)	> 6.82	> 6.82	1 to 10
Cc1c(-c2ccn(C(C)C)n2)cn2nc(-c3nccn3C)nc(Nc3ccn(C)n3)c12 [Compound 61, 6-(1-Isopropyl-1H-pyrazol-3-yl)-5-methyl-2-(1-methyl-1H-imidazol-2-yl)-N-(1-methyl-1H-pyrazol-3-yl)pyrrolo[2,1-f][1,2,4]triazin-4-amine]	D (D = 76-100% inhibition)	D (D = 76-100% inhibition)	D (D = 76-100% inhibition)	D (D = 76-100% inhibition)	D (D = 76-100% inhibition)	D (D = 76-100% inhibition)	6.00 to 6.29	–	–
COc1cc(Nc2nc(-c3nccn3C)nn3cc(-c4ccn(C)n4)c(C)c23)ncn1 [Compound 63, N-(6-Methoxypyrimidin-4-yl)-5-methyl-2-(1-methyl-1H-imidazol-2-yl)-6-(1-methyl-1H-pyrazol-3-yl)pyrrolo[2,1-f][1,2,4]triazin-4-amine]	C (C = 50-75% inhibition)	D (D = 76-100% inhibition)	D (D = 76-100% inhibition)	D (D = 76-100% inhibition)	D (D = 76-100% inhibition)	D (D = 76-100% inhibition)	> 6.82	–	–
CCn1ccc(-c2cn3nc(-c4nccn4C)nc(Nc4cc(OC)ncn4)c3c2C)n1 [Compound 64, 6-(1-Ethyl-1H-pyrazol-3-yl)-N-(6-methoxypyrimidin-4-yl)-5-methyl-2-(1-methyl-1H-imidazol-2-yl)pyrrolo[2,1-f][1,2,4]triazin-4-amine]	C (C = 50-75% inhibition)	D (D = 76-100% inhibition)	D (D = 76-100% inhibition)	D (D = 76-100% inhibition)	D (D = 76-100% inhibition)	D (D = 76-100% inhibition)	> 6.82	–	–
COc1cc(Nc2nc(-c3nccn3C)nn3cc(-c4cccc(OC)n4)c(C)c23)ncn1 [Compound 65, 6-(6-Methoxypyridin-2-yl)-N-(6-methoxypyrimidin-4-yl)-5-methyl-2-(1-methyl-1H-imidazol-2-yl)pyrrolo[2,1-f][1,2,4]triazin-4-amine]	A (A = 1-25% inhibition)	C (C = 50-75% inhibition)	B (B = 26-49% inhibition)	C (C = 50-75% inhibition)	C (C = 50-75% inhibition)	C (C = 50-75% inhibition)	> 6.82	–	–
COc1ccc(-c2cn3nc(-c4nccn4C)nc(Nc4cc(OC)ncn4)c3c2C)cn1 [Compound 66, 6-(6-Methoxypyridin-3-yl)-N-(6-methoxypyrimidin-4-yl)-5-methyl-2-(1-methyl-1H-imidazol-2-yl)pyrrolo[2,1-f][1,2,4]triazin-4-amine]	C (C = 50-75% inhibition)	D (D = 76-100% inhibition)	D (D = 76-100% inhibition)	D (D = 76-100% inhibition)	D (D = 76-100% inhibition)	D (D = 76-100% inhibition)	< 6.00	–	–
Cc1c(-c2ccn(C(C)C)n2)cn2nc(-c3nccn3C)nc(Nc3cc(C4CC4)n[nH]3)c12 [Compound 68, N-(3-Cyclopropyl-1H-pyrazol-5-yl)-6-(1-isopropyl-1H-pyrazol-3-yl)-5-methyl-2-(1-methyl-1H-imidazol-2-yl)pyrrolo[2,1-f][1,2,4]triazin-4-amine]	D (D = 76-100% inhibition)	D (D = 76-100% inhibition)	D (D = 76-100% inhibition)	D (D = 76-100% inhibition)	D (D = 76-100% inhibition)	D (D = 76-100% inhibition)	> 6.82	–	–

Further lines, results first:

KRas G12C mutant + SOS: % inh. [1]	KRas G12C mutant: % inh. [1]	KRas wild type + SOS: % inh. [2]	KRas wild type: % inh. [2]	KRas G12D mutant + SOS: % inh. [3]	KRas G12D mutant: % inh. [3]	pIC50 [4, 5]	pIC50 ([4]; MiaPaca2, pancreatic, KRas G12C, read-out: Proliferation assay IC50)	IC50 ([4]; Proliferation assay, MiaPaca-2, read-out: MiaPaca-2 IC50 (nM) Pancreatic) [nM]	Compound
C (C = 50-75% inhibition)	B (B = 26-49% inhibition)	C (C = 50-75% inhibition)	D (D = 76-100% inhibition)	C (C = 50-75% inhibition)	D (D = 76-100% inhibition)	> 6.82	–	–	Cc1c(-c2ccn(C(C)C)n2)cn2nc(-c3nccn3C)nc(Nc3ccncn3)c12 [Compound 55, 6-(1-Isopropyl-1H-pyrazol-3-yl)-5-methyl-2-(1-methyl-1H-imidazol-2-yl)-N-(pyrimidin-4-yl)pyrrolo[2,1-f][1,2,4]triazin-4-amine]
B (B = 26-49% inhibition)	C (C = 50-75% inhibition)	C (C = 50-75% inhibition)	C (C = 50-75% inhibition)	C (C = 50-75% inhibition)	D (D = 76-100% inhibition)	6.30 to 6.82	–	–	Cc1c(-c2ccn(C(C)C)n2)cn2nc(-c3nccn3C)nc(Nc3nnco3)c12 [Compound 59, N-(6-(1-Isopropyl-1H-pyrazol-3-yl)-5-methyl-2-(1-methyl-1H-imidazol-2-yl)pyrrolo[2,1-f][1,2,4]triazin-4-yl)-1,3,4-oxadiazol-2-amine]
0 (0 = 0% inhibition)	A (A = 1-25% inhibition)	A (A = 1-25% inhibition)	A (A = 1-25% inhibition)	A (A = 1-25% inhibition)	A (A = 1-25% inhibition)	< 6.00	–	–	Cc1c(-c2ccn(C(C)C)n2)cn2nc(-c3nccn3C)nc(Nc3ncco3)c12 [Compound 60, N-(6-(1-Isopropyl-1H-pyrazol-3-yl)-5-methyl-2-(1-methyl-1H-imidazol-2-yl)pyrrolo[2,1-f][1,2,4]triazin-4-yl)oxazol-2-amine]
0 (0 = 0% inhibition)	A (A = 1-25% inhibition)	0 (0 = 0% inhibition)	A (A = 1-25% inhibition)	A (A = 1-25% inhibition)	B (B = 26-49% inhibition)	> 6.82	–	–	Cc1c(-c2ccn(C(C)C)n2)cn2nc(-c3nccn3C)nc(Nc3cnccn3)c12 [Compound 62, 6-(1-Isopropyl-1H-pyrazol-3-yl)-5-methyl-2-(1-methyl-1H-imidazol-2-yl)-N-(pyrazin-2-yl)pyrrolo[2,1-f][1,2,4]triazin-4-amine]
B (B = 26-49% inhibition)	C (C = 50-75% inhibition)	C (C = 50-75% inhibition)	C (C = 50-75% inhibition)	C (C = 50-75% inhibition)	C (C = 50-75% inhibition)	< 6.00	–	–	Cc1c(-c2ccn(C(C)C)n2)cn2nc(-c3nccn3C)nc(Nc3nnc(C4CC4)o3)c12 [Compound 67, 5-Cyclopropyl-N-(6-(1-isopropyl-1H-pyrazol-3-yl)-5-methyl-2-(1-methyl-1H-imidazol-2-yl)pyrrolo[2,1-f][1,2,4]triazin-4-yl)-1,3,4-oxadiazol-2-amine]
